In US20070053994A1, “Anti-inflammatory treatment” (priority 2003, published 2007):

Test system: severe psoriasis (person)
Assay: Case report: treatment of severe psoriasis of hands, arms and feet
Type: in vivo, human
Conditions: effects did not last following long term treatment

C[C@]12CCC(=O)C=C1CC[C@@H]1[C@@H]2C(=O)C[C@@]2(C)[C@H]1CC[C@]2(O)C(=O)CO [cortisone]
effect of earlier treatment on psoriasis (patient history): some effects
